Measurements as given in US6492128B1, “Drug screen targeting lipoprotein-membrane anchorage” (Ramot University Authority for Applied Research & …, priority 1997, dated 2002).

What was measured:
EJ cells = assay: Inhibition of EJ cells growth; type: cell-based, rat
[1] = target: T1, oncogenic Ras in isolated EJ cell membranes (Homo sapiens, UniProt P01112, G12V); assay: Cell-free assay: dislodging of Ras from isolated EJ cell membranes; type: biochemical, rat; conditions: for Dislodging of Ras (% of control) in a cell free system (10 μM drug): isolated EJ cell membranes, Ras in pellet; for dislodging of Ras from isolated membrane: 10 μM
T1 construct: expressed in transfected cells; host or cells: Rat1 fibroblasts transformed with Ha-Ras (EJ cells)
Protocol: The cell-free assay is utilized in these next experiments; i.e. the effect of FTS on Ras in isolated membranes was investigated. Briefly, we used EJ cell membranes (total particulate fraction) prepared in homogenization buffer (10 mM Tris-HCl, pH 8.5, 0.32 M sucrose) with protease inhibitors. The membranes were stored in aliquot at −70° C. and thawed prior to use. In a standard assay, membranes containing 15 μg of protein are incubated in a total volume of 100 μl of homogenization buffer with or without drug for 60 min at 37° C. The drugs are prepared freshly in 100% DMSO, and diluted with 50 mM Tris-HCl pH 8.5 to yield 5× drug concentration in 10% DMSO. It is important to prepare these solutions at room temperature, otherwise the drugs may precipitate. The drug solutions (20 μl) are pipetted into the assay tubes, the membrane/buffer mixtures (80 μl) are quickly added, the tubes are gently mixed, and the tubes are transferred to a 37° C. shaking water bath. The reactions are stopped by addition of 900 μl of cold homogenization buffer (without sucrose) containing 10 μg BSA. Following a 5 min incubation at room temperature, the membranes are pelleted by centrifugation in a benchtop microfuge (14,000 rpm). The supernatants are removed and the pellets are subjected to mini-SDS-PAGE followed by Immunoblotting (pan anti-Ras antibodies) and ECL assays. These assays are detailed infra. It is considered preferable to perform the reactions at 25-37° C. and to use relatively small amounts of membrane protein in the assay. Another preference is to dilute the membranes in a solution containing BSA at the end of the reaction period.

[2] = tested on: G protein β (Gβ) in EJ cell membranes; assay: Immunoblotting of Gβ in EJ cell membranes; type: cell-based, rat; conditions: same conditions as for Ras detection
Protocol: The level of G protein β (Gβ) was determined in membranes of EJ cells that were grown in the absence and in the presence of FTS in the same conditions that were used for Ras detection. A sample of 25 μg membrane proteins were separated by SDS-PAGE (12.5%), and blotted to nitrocellulose paper. Immunoblots were performed by using rabbit anti Gβ antibodies (dilution of 1:1000) as a first antibody and goat anti rabbit IgG HRP (Sigma) as a second antibody (dilution of 1:5000). To develop, the blots were exposed to ECL.

[3] = FTS 5-50 μM; cited from earlier work
[4] = tested on: Erb B2 and Ha-Ras-transformed cells; conditions: cited from earlier work
[5] = target: T2, oncogenic Ras in EJ cells (Homo sapiens, UniProt P01112, G12V); assay: Dislodging of Ras from membranes in intact EJ cells (particulate/cytosolic fractions, immunoblot); type: cell-based, rat
T2 construct: expressed in transfected cells; host or cells: Rat1 fibroblasts transformed with Ha-Ras (EJ cells)
Protocol: Ha-Ras transformed Rat1 cells (EJ cells) were plated at a density of 4×10^6 cells/10 cm dish. After 3 hr the cells were treated for 15 hr (dose response) or for 2, 6, 12, or 24 hr (time course) with FTS (0-50 μM, dose response) or (25 μM, time course) or (0.1% DMSO, control). The cells were then detached from the dishes and washed in phosphate-buffered saline (PBS). All the subsequent procedures were carried out at 4° C. The cell pellets were homogenized in […] of homogenization buffer 20 mM Tris-HCl, pH=7.6) leupeptine (5 μg/ml), pepstatine (5 μg/ml), benzamidine (1 μM), phenylmethyl-sulphonyl fluoride (1 mM), aprotinine (5 units/ml), and MgCI2 (10 mM). Total cell membranes (P100) and cytosol (S100) were obtained by a 100,000×g centrifugation step (30 min). Following resuspension of the P100 in 750 μl of homogenization buffer, both S100 and P100 received 75 μl of 10×immunoprecipitation buffer (100 mM Tris-HCl, pH=7.5, 1.5 M NaCl, 10% Triton X-100). Samples were frozen for 1 hr at −70° C. and then thawed. Insoluble material was removed by a 10 min 10,000×g spin and the clear supernatant was used for immunoprecipitation. Samples containing 500 μg protein of P100 and the equivalent amount of S100 protein, were incubated for 12 hr with 2 μg of Y13-259 antibodies coupled to agarose bends (Oncogene Science). The beads were then precipitated and washed four times with 1 ml of immunoprecipitation buffer, twice with 1 ml of 20 mM Tris-HCl, pH=7.6, and then resuspended in 20 μl of SDS-sample buffer. Proteins were then separated by 12.5% SDS-PAGE (mini gels) and blotted onto nitrocellulose paper. The paper was blocked with 10% skimmed milk in tris-buffered saline and then incubated for 7 hr with rabbit anti-Ras serum diluted 1:1000 with tris buffered saline containing 10 mg/ml bovine serum albumin and 0.05% tween-20 (anti-Ras antiserum was prepared by immunizing rabbits with recombinant human-Ha-Ras (Marom et al.). Immunoblots were then incubated for 1 hr with 1:5000 dilution of goat anti-rabbit IgG-horseradish peroxidase (HRP) conjugate (Sigma) and developed by exposing to ECL.
Here, EJ cells were plated at a density of 4×10^6 cells/10 cm dish. The plated cells were cultured for 3 hours and then received new media containing 0.1% DMSO with or without 25 μM FTS. The cells were further cultured for 2, 4, 12, or 24 hours before harvesting and fractionation into particulate and cytosolic fractions. Ras proteins were immunoprecipitated from the fractions, subjected to SDS-PAGE, immunoblotted and developed with ECL as described in the methods, supra. The density of the bands produced from the particulate fraction (FIG. 3A) and the cytosolic fraction (FIG. 3B) was measured with a scanning densitometer. The data obtained from the densitometric analysis are presented in FIG. 3C as the ratio of values of test (FTS treated) over control (DMSO only) cells. The mean values of three separate experiments are shown.
Referring to FIGS. 4A and 4B, the effect of FTS in dislodging Ras from EJ cell membranes was investigated for dose dependence. Here, Ras protein concentration was determined in the particulate fraction of EJ cells that were exposed to the indicated concentrations of FTS (0-50 μM) and AFC (50 μM) for 15 hours as detailed for FIG. 3, supra. The densitometric analysis of the immunoblot bands shown in FIG. 4A are presented in FIG. 4B as mean % of control of three experiments.

[6] = Toxicity / cytotoxicity of FTS
[7] = tested on: total oncogenic Ras in EJ cells; assay: Total cellular Ras in EJ cells (immunoblot of total homogenate); type: cell-based, rat; conditions: 15 hours, total cell homogenate; read-out: EC50 for decrease in the total amount of Ras in EJ cells
Protocol: In experiments where the total amount of Ras was estimated, the cells were homogenized as detailed above and samples of the total cell-homogenate (15 μg protein) were loaded onto the gel. For immunoblotting, we have also used the pan-Ras Ab (Calbiochem) at a 1:2000 dilution, and anti-mouse IgG-HRP at a 1:7500 dilution. To develop, the blots were exposed to ECL. The same immunoblotting procedure was also used in the cell-free system experiments. If Ras is degraded after it is dislodged, total cellular Ras should fall after FTS treatment. To investigate this, EJ cells were incubated for 15 hours, with various concentrations of FTS as detailed in FIG. 3, supra, then homogenized and total cell Ras measured by immunoblot assay. FTS caused a dose dependent decrease in the total amount of Ras in treated EJ cells. Densitometric analysis of data, such as that of FIG. 5A, is presented in FIG. 5B as the mean percent of control of 3 experiments. The EC5O was 15 μM (FIG. 5B), which is similar to that determined for the effect of FTS on particulate Ras.

Ras = conditions: cited from earlier work
[8] = tested on: v-raf or T-antigen transformed cells; conditions: cited from earlier work
normal Ras in Rat1 cells = assay: Ras (total and particulate) in Rat1 cells; type: cell-based, rat
Protocol: In experiments where the total amount of Ras was estimated, the cells were homogenized as detailed above and samples of the total cell-homogenate (15 μg protein) were loaded onto the gel. For immunoblotting, we have also used the pan-Ras Ab (Calbiochem) at a 1:2000 dilution, and anti-mouse IgG-HRP at a 1:7500 dilution. To develop, the blots were exposed to ECL. The same immunoblotting procedure was also used in the cell-free system experiments. The effect of FTS on total Ras in Rat1 cells (Rat1 cells have normal rather than oncogenic Ras) was also examined using the same procedures and conditions as that used for EJ cells in FIGS. 5A & 5B. […] However, dislodging normal Ras in Rat1 cells required 50 μM FTS whereas the oncogenic Ras found in EJ cell is dislodged at lower concentrations of the drug (FIG. 5A). Thus, FTS may have some selectivity towards the activated forms of Ras. This may account for the fact that FTS is not toxic at doses that inhibit the growth of Ras dependent cells and tumors (see toxicology section below.)

SMILES: CC(C)=CCC/C(C)=C/CC/C(C)=C/CSc1ccc(Cl)cc1C(=O)O [5-Cl-FTS]
- EC50 (EJ cells; EJ cells): 8.5 ± 2.4 µM
- Dislodging of Ras (% of control) in a cell free system (10 μM drug) [1]: 87 % of control

SMILES: COC(=O)c1ccccc1SCC=C(C)CCC=C(C)CCC=C(C)C [FMTS, carboxymethyl FTS]
- Inhibition of EJ cells Growth EC50 (μM) (EJ cells; EJ cells): Not active at 50 μM
- Dislodging of Ras (% of control) in a cell free system (10 μM drug) [1]: 110 % of control
- dislodging of Ras from isolated membrane ([1]; cell free): did not dislodge Ras

SMILES: CC(C)=CCC/C(C)=C/CSc1ccccc1C(=O)O [GTS, geranyl thiosalicylic acid]
- Inhibition of EJ cells Growth EC50 (μM) (EJ cells; EJ cells): Not active at 50 μM
- Dislodging of Ras (% of control) in a cell free system (10 μM drug) [1]: 100 % of control
- dislodging of Ras from isolated membrane ([1]; cell free): did not dislodge Ras

SMILES: CC(C)=CCCC(C)=CCCC(C)=CCSc1ccccc1C(=O)O [FTS, Farnesylthiosalicylic acid]
- amount of Gβ associated with EJ cell membranes [2]: did not reduce the amount of Gβ
- cytotoxicity at growth-inhibiting concentrations [3]: without producing cytotoxicity
- concentration range of dose-dependent growth inhibition [4]: 1-25 μm
- cytosolic Ras after exposure ([5]; FTS 25 μM, 2 to 6 hours after exposure, transient): significant increase in cytosolic Ras
- decrease in the amount of particulate Ras versus control levels ([5]; FTS 25 μM, after 24 hours, EJ cells, densitometry, 3 experiments): 80%
- concentration range that will produce maximal displacement of Ras ([5]; cell membranes): 10 to 50 µM
- concentrations required to dislodge Ras from cell membranes ([5]; cell membranes): < 25 µM
- EC50 ([5]; intact EJ cells, 15 hours, 0-50 μM, read-out: EC50 for dislodging Ras from EJ cell membranes (particulate Ras)): ~10 µM
- EC50 (EJ cells; Rattus norvegicus, EJ): 7.5 ± 3.7 µM
- Dislodging of Ras (% of control) in a cell free system (10 μM drug) [1]: 56 % of control
- EC50 ([1]; cell free, 60 min at 37° C.): 10 to 15 µM
- toxicity at doses that inhibit the growth of Ras dependent cells and tumors [6]: not toxic
- EC50 [7]: 15 µM
- inhibition of farnesylation or methylation of Ras in intact cells (Ras): does not inhibit farnesylation or methylation of Ras
- effect on growth of v-raf or T-antigen transformed cells [8]: does not affect the growth
- concentration required for dislodging normal Ras in Rat1 cells (normal Ras in Rat1 cells; particulate Ras, Rat1 cells): 50 µM
- effect on total Ras in Rat1 cells (normal Ras in Rat1 cells; same conditions as EJ cells, dose response shifted to the right): significant decrease in Ras

SMILES: CC(C)=CCCC(C)=CCCC(C)=CCSc1cc(Cl)ccc1C(=O)O [4-Cl-FTS]
- EC50 (EJ cells; EJ cells): 28 ± 3 µM
- Dislodging of Ras (% of control) in a cell free system (10 μM drug) [1]: 85 % of control

SMILES: CC(C)=CCC/C(C)=C/CC/C(C)=C/CSc1c(Cl)cccc1C(=O)O [3-CI-FTS]
- EC50 (EJ cells; EJ cells): > 50 µM
- Dislodging of Ras (% of control) in a cell free system (10 μM drug) [1]: 109 % of control
- dislodging of Ras from isolated membrane ([1]; cell free): did not dislodge Ras
